The supplement of paper PMC10307832

How the values were obtained:
Test in all cases: relative viability (nuclei count vs DMSO), 5 days (fraction); higher = more cells survive
QS11 + Linsitinib = compound: C1CC2=C(C1)C=C(C=C2)OC3=NC(=C4C(=N3)N(C=N4)CC5=CC=C(C=C5)C6=CC=CC=C6)N[C@@H](CC7=CC=CC=C7)CO [QS11] + C[C@]1(O)C[C@@H](c2nc(-c3ccc4ccc(-c5ccccc5)nc4c3)c3c(N)nccn32)C1 [Linsitinib] (partner 1 µM)
Procedure, shortened: (§1)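 One day after seeding in 1536-well plates, lung cancer cell lines were dosed by pin tool. Dosing was either single-drug or a fixed anchor-drug dose plus five library-drug doses (not always all listed) in √10 steps. After 5 days, nuclei were stained in one fix-and-stain step and counted on 4× images, and relative viability is the nuclei count of treated wells over that of vehicle wells, given as the median of duplicate plates.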

QS11 + Decitabine = compound: C1CC2=C(C1)C=C(C=C2)OC3=NC(=C4C(=N3)N(C=N4)CC5=CC=C(C=C5)C6=CC=CC=C6)N[C@@H](CC7=CC=CC=C7)CO [QS11] + Nc1ncn([C@H]2C[C@H](O)[C@@H](CO)O2)c(=O)n1 [Decitabine] (partner 2 µM)
Procedure, shortened: as §1

[1] = compound: C[As](C)SC[C@H](NC(=O)CC[C@H](N)C(=O)O)C(=O)NCC(=O)O [Darinaparsin] + CC(C)C[C@H](NC(=O)[C@H](Cc1ccccc1)NC(=O)c1cnccn1)B(O)O [Bortezomib] (partner 0.002 µM)
Procedure, shortened: as §1

Darinaparsin + Lapatinib = compound: C[As](C)SC[C@H](NC(=O)CC[C@H](N)C(=O)O)C(=O)NCC(=O)O [Darinaparsin] + CS(=O)(=O)CCNCc1ccc(-c2ccc3ncnc(Nc4ccc(OCc5cccc(F)c5)c(Cl)c4)c3c2)o1 [Lapatinib] (partner 2 µM)
Procedure, shortened: as §1

Question: Which relative viability (QS11 + Linsitinib; first compound 0.08 µM) does the source give for NCI-H2009 here?
Answer: 1.25

Question: And the relative viability (QS11 + Linsitinib; first compound 0.253 µM)?
Answer: 1.26

Question: What about the relative viability (QS11 + Linsitinib; first compound 0.8 µM) of the same cell line?
Answer: 1.13

Question: What about the relative viability (QS11 + Linsitinib; first compound 2.53 µM) of the same cell line?
Answer: 1.03

Question: What about the relative viability (QS11 + Linsitinib; first compound 8 µM) of the same cell line?
Answer: 0.95

Question: And the relative viability (QS11 + Decitabine; first compound 0.08 µM)?
Answer: 0.362

Question: And the relative viability (QS11 + Decitabine; first compound 0.253 µM)?
Answer: 0.426

Question: And the relative viability (QS11 + Decitabine; first compound 0.8 µM)?
Answer: 0.364

Question: And the relative viability (QS11 + Decitabine; first compound 2.53 µM)?
Answer: 0.409

Question: What about the relative viability (QS11 + Decitabine; first compound 8 µM) of the same cell line?
Answer: 0.371

Question: What about the relative viability ([1]; first compound 0.08 µM) of the same cell line?
Answer: 1.1

Question: And the relative viability ([1]; first compound 0.8 µM)?
Answer: 1.06

Question: What about the relative viability ([1]; first compound 2.53 µM) of the same cell line?
Answer: 0.963

Question: And the relative viability ([1]; first compound 8 µM)?
Answer: 0.845

Question: What about the relative viability (Darinaparsin + Lapatinib; first compound 0.08 µM) of the same cell line?
Answer: 0.992

Question: What about the relative viability (Darinaparsin + Lapatinib; first compound 0.8 µM) of the same cell line?
Answer: 0.93

Question: What about the relative viability (Darinaparsin + Lapatinib; first compound 2.53 µM) of the same cell line?
Answer: 0.888

Question: And the relative viability (Darinaparsin + Lapatinib; first compound 8 µM)?
Answer: 0.915

Question: What does the source list for EMC-BAC-2?
Answer: relative viability (QS11 + Linsitinib; first compound 0.08 µM): 0.825; relative viability (QS11 + Linsitinib; first compound 0.253 µM): 0.826; relative viability (QS11 + Linsitinib; first compound 0.8 µM): 0.728; relative viability (QS11 + Linsitinib; first compound 2.53 µM): 0.815; relative viability (QS11 + Linsitinib; first compound 8 µM): 0.73; relative viability (QS11 + Decitabine; first compound 0.08 µM): 0.939; relative viability (QS11 + Decitabine; first compound 0.253 µM): 1.07; relative viability (QS11 + Decitabine; first compound 0.8 µM): 0.842; relative viability (QS11 + Decitabine; first compound 2.53 µM): 0.913; relative viability (QS11 + Decitabine; first compound 8 µM): 0.854; relative viability ([1]; first compound 0.08 µM): 1.2; relative viability ([1]; first compound 0.8 µM): 0.973; relative viability ([1]; first compound 2.53 µM): 0.997; relative viability ([1]; first compound 8 µM): 1.2; relative viability (Darinaparsin + Lapatinib; first compound 0.08 µM): 0.858; relative viability (Darinaparsin + Lapatinib; first compound 0.8 µM): 0.924; relative viability (Darinaparsin + Lapatinib; first compound 2.53 µM): 0.949; relative viability (Darinaparsin + Lapatinib; first compound 8 µM): 1.05

Question: NCI-H2023 was tested. Which relative viability (QS11 + Linsitinib; first compound 0.08 µM) did it give?
Answer: 0.729

Question: What about the relative viability (QS11 + Linsitinib; first compound 0.253 µM) of the same cell line?
Answer: 0.545

Question: And the relative viability (QS11 + Linsitinib; first compound 0.8 µM)?
Answer: 0.57

Question: What about the relative viability (QS11 + Linsitinib; first compound 2.53 µM) of the same cell line?
Answer: 0.713

Question: And the relative viability (QS11 + Linsitinib; first compound 8 µM)?
Answer: 0.803

Question: What about the relative viability (QS11 + Decitabine; first compound 0.08 µM) of the same cell line?
Answer: 0.231

Question: What about the relative viability (QS11 + Decitabine; first compound 0.253 µM) of the same cell line?
Answer: 0.227

Question: And the relative viability (QS11 + Decitabine; first compound 0.8 µM)?
Answer: 0.217

Question: What about the relative viability (QS11 + Decitabine; first compound 2.53 µM) of the same cell line?
Answer: 0.249

Question: And the relative viability (QS11 + Decitabine; first compound 8 µM)?
Answer: 0.224

Question: And the relative viability ([1]; first compound 0.08 µM)?
Answer: 1.36

Question: What about the relative viability ([1]; first compound 0.8 µM) of the same cell line?
Answer: 0.956

Question: And the relative viability ([1]; first compound 2.53 µM)?
Answer: 0.892

Question: What about the relative viability ([1]; first compound 8 µM) of the same cell line?
Answer: 1.06

Question: What about the relative viability (Darinaparsin + Lapatinib; first compound 0.08 µM) of the same cell line?
Answer: 1

Question: And the relative viability (Darinaparsin + Lapatinib; first compound 0.8 µM)?
Answer: 0.85

Question: What about the relative viability (Darinaparsin + Lapatinib; first compound 2.53 µM) of the same cell line?
Answer: 0.63

Question: And the relative viability (Darinaparsin + Lapatinib; first compound 8 µM)?
Answer: 1.2

Question: How did the relative viability (QS11 + Linsitinib; first compound 0.08 µM) turn out when RERF-LC-KJ was run?
Answer: 0.933

Question: And the relative viability (QS11 + Linsitinib; first compound 0.253 µM)?
Answer: 0.929

Question: What about the relative viability (QS11 + Linsitinib; first compound 0.8 µM) of the same cell line?
Answer: 0.854

Question: And the relative viability (QS11 + Linsitinib; first compound 2.53 µM)?
Answer: 0.868

Question: And the relative viability (QS11 + Linsitinib; first compound 8 µM)?
Answer: 0.782

Question: And the relative viability (QS11 + Decitabine; first compound 0.08 µM)?
Answer: 0.765

Question: And the relative viability (QS11 + Decitabine; first compound 0.253 µM)?
Answer: 0.691

Question: And the relative viability (QS11 + Decitabine; first compound 0.8 µM)?
Answer: 0.619

Question: And the relative viability (QS11 + Decitabine; first compound 2.53 µM)?
Answer: 0.692

Question: And the relative viability (QS11 + Decitabine; first compound 8 µM)?
Answer: 0.524

Question: What about the relative viability ([1]; first compound 0.08 µM) of the same cell line?
Answer: 1.33

Question: And the relative viability ([1]; first compound 0.8 µM)?
Answer: 1.14

Question: What about the relative viability ([1]; first compound 2.53 µM) of the same cell line?
Answer: 1.14

Question: And the relative viability ([1]; first compound 8 µM)?
Answer: 1.12

Question: And the relative viability (Darinaparsin + Lapatinib; first compound 0.08 µM)?
Answer: 1.11

Question: What about the relative viability (Darinaparsin + Lapatinib; first compound 0.8 µM) of the same cell line?
Answer: 0.849

Question: What about the relative viability (Darinaparsin + Lapatinib; first compound 2.53 µM) of the same cell line?
Answer: 0.762

Question: What about the relative viability (Darinaparsin + Lapatinib; first compound 8 µM) of the same cell line?
Answer: 1.03
